Assay type in all cases: biochemical
In test [1] the target is T1, cathepsin D (Bos taurus, UniProt P80209).
T1 construct: purchased SIGMA C 3138
The test is described as follows: Enzyme inhibition of cathepsin D. The settings on record: pH 3.2, substrate bovine haemoglobin, 37° C., incubation 30 minutes. On the procedure:
The method used is very similar to the pepsin method (T. AOYAGI, 1971).
The substrate used is bovine haemoglobin and the enzyme is cathepsin D of bovine origin (SIGMA, No.C 3138, batch 26 C-8100).
0.5% strength haemoglobin is hydrolysed with cathepsin D (200 μg/ml) at 37° C. in citrate-phosphate buffer at pH 3.2.
The substrate, the inhibitor and the enzyme are incubated for 30 minutes.
After precipitation of the proteins with 1.7M perchloric acid, the optical density of the supernatant is determined on a spectrophotometer at 280 nm.
The results are expressed as the percentage reduction in the maximum optical density obtained in the absence of inhibitor.
(§1) A 10^-3 M stock solution of the peptide is made up in a mixture containing equal volumes of a solution A (19 ml of methanol+1 ml of acetic acid) and a solution B (4 ml of methanol+2 ml of sodium hydroxide solution).
(§2) The subsequent dilutions of the peptide are then prepared in the appropriate buffer in accordance with the procedures described above.

The target of test [2] is porcine pepsin (Sus scrofa, UniProt P00791). The test is described as follows: Inhibition of porcine pepsin. As to conditions: pH 2, substrate bovine haemoglobin, 37° C. On the procedure:
The method used is that of TAKAAKI AOYAGI (J. Antibiotics, 24, pages 687-694, 1971). The substrate used is bovine haemoglobin and the enzyme is porcine pepsin.
0.5% strength haemoglobin is hydrolysed with pepsin (1 mcg/ml) at 37° C. in 0.02M KCl-HCl buffer at pH 2.
Preincubation takes place for 3 minutes, followed by incubation for 25 minutes. After precipitation of the proteins with 1.7M perchloric acid, the optical density of the supernatant is determined on a spectrophotometer at 280 nm.
The results are expressed as the percentage inhibition of the maximum optical density obtained in the absence of inhibitor. They are also expressed as an IC50.
as §1, §2

Test [3] concerns the target T2, human plasma renin activity (Homo sapiens, UniProt P00797).
T2 construct: the human plasma contain and the substrate: angiotensinogen, and the enzyme: renin; from tissue; host or cells: pool of human plasma
T2 sequence (P00797 67-406): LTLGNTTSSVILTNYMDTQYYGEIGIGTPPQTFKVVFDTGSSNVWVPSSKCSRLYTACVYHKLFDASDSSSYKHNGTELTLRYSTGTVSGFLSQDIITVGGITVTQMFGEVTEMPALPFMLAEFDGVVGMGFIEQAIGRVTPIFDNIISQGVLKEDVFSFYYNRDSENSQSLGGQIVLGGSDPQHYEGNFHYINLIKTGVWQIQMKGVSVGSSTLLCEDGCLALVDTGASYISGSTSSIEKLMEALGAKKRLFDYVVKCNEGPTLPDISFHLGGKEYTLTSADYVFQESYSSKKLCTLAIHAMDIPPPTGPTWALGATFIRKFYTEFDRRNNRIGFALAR
The test is described as follows: Inhibition of the human plasma renin activity (P.R.A.). As to conditions: 37° C., pool of human plasma. As to the method:
The angiotensin I released during the reaction (the human plasma contain and the substrate: angiotensinogen, and the enzyme: renin) is measured by radioimmunological determination using a kit.
Of course, an inhibitor of the enzyme for conversion of the PMSF (phenylmethylsulphonyl fluoride) is added to the incubation medium.
Two types of experiments were carried out:
one at pH 6, which is the optimum pH for the enzyme reaction with human renin (maleate buffer, incubation: 30 minutes), and
the other at pH 7.4, which is the physiological pH (phosphate buffer, incubation: 60 minutes).
as §1, §2

The mark [4] stands for this setting: pH 6, maleate buffer, incubation 30 minutes, read-out: INHIBITION OF HUMAN P.R.A. (IC50) pH 6.
[5] abbreviates: pH 7.4, phosphate buffer, incubation 60 minutes, read-out: INHIBITION OF HUMAN P.R.A. (IC50) pH 7.4.

Read-outs that look alike come from different tables or passages of the source. Non-standard residues stand in square brackets, D forms with d. Residues, ends and D or L forms follow the SMILES beside them. *: point of attachment. Sta = CC(C)C[C@H](N)[C@@H](O)CC(=O)O; Isovaleryl = CC(C)CC(=O)*; Cbz = O=C(OCc1ccccc1)*; Boc = CC(C)(C)OC(=O)*

Chain of porcine pepsin (P00791 60-385): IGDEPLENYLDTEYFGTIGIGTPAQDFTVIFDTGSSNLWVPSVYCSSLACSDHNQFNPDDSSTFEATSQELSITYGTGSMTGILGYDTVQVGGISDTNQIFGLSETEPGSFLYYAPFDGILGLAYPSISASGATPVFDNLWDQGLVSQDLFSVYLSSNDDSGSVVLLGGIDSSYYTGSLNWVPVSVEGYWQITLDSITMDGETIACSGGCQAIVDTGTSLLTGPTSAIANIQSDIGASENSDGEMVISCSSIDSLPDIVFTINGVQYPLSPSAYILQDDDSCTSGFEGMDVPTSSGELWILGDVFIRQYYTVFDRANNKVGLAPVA
T1 sequence (P80209 45-390): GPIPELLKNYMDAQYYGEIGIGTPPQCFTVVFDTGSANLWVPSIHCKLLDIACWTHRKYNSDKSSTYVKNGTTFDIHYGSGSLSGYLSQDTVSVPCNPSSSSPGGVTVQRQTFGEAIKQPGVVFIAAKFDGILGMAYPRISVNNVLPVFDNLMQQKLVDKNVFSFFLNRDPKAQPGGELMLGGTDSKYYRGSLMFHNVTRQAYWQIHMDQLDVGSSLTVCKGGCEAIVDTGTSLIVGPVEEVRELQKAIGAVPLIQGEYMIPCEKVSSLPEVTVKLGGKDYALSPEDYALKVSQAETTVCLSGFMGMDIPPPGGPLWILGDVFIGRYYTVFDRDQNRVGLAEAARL

Turning to `COC(=O)C[C@H](O)[C@H](CC(C)C)NC(=O)[C@H](C)NC(=O)C[C@H](O)[C@H](CC(C)C)NC(=O)[C@H](Cc1c[nH]cn1)NC(=O)[C@H](Cc1ccccc1)NC(=O)OC(C)(C)C` [SR 41395, Boc--Phe--His--Sta--Ala--Sta--OMe] (Boc-FH[Sta]A[Sta]-OMe), the IC50 stood at 870 nM in test [1] and 1300 nM in test [2].
Regarding `COC(=O)C[C@H](O)[C@H](CC(C)C)NC(=O)[C@H](C)NC(=O)C[C@H](O)[C@H](CC(C)C)NC(=O)[C@H](Cc1c[nH]cn1)NC(=O)[C@H](Cc1c[nH]c2ccccc12)NC(=O)OC(C)(C)C` [SR 41619, Boc--Trp--His--Sta--Ala--Sta--OMe] (Boc-WH[Sta]A[Sta]-OMe), the midpoint of inhibition in test [1], the IC50, lay at 750 nM.
As for `COC(=O)C[C@H](O)[C@H](CC(C)C)NC(=O)[C@H](C)NC(=O)C[C@H](O)[C@H](CC(C)C)NC(=O)[C@H](Cc1ccccc1)NC(=O)[C@H](Cc1ccccc1)NC(=O)OC(C)(C)C` [SR 41331, Boc--Phe--Phe--Sta--Ala--Sta--OMe] (Boc-FF[Sta]A[Sta]-OMe), the IC50 was 3.5 nM in test [3] (setting [4]), 190 nM in test [3] (setting [5]), 180 nM in test [1] and 14 nM in test [2].
Consider `COC(=O)C[C@H](O)[C@H](CC(C)C)NC(=O)[C@H](C)NC(=O)C[C@H](O)[C@H](CC(C)C)NC(=O)[C@@H](NC(=O)[C@H](Cc1ccccc1)NC(=O)OCc1ccccc1)C(C)C` [SR 41405, Z--Phe--Val--Sta--Ala--Sta--OMe] (Cbz-FV[Sta]A[Sta]-OMe), for which the results for the IC50 in test [1] and in test [2] were 95 nM and 65 nM, respectively.
For `COC(=O)C[C@H](O)[C@H](CC(C)C)NC(=O)[C@H](C)NC(=O)C[C@H](O)[C@H](CC(C)C)NC(=O)[C@H](Cc1c[nH]c2ccccc12)NC(=O)[C@H](Cc1c[nH]c2ccccc12)NC(=O)OC(C)(C)C` [SR 41376, Boc--Trp--Trp--Sta--Ala--Sta--OMe] (Boc-WW[Sta]A[Sta]-OMe), in that order: 130 nM and 120 nM.
Regarding `COC(=O)C[C@H](O)[C@H](CC(C)C)NC(=O)[C@H](C)NC(=O)C[C@H](O)[C@H](CC(C)C)NC(=O)[C@@H](NC(=O)[C@H](Cc1c[nH]c2ccccc12)NC(=O)OCc1ccccc1)C(C)C` [SR 41485, Z--Trp--Val--Sta--Ala--Sta--OMe] (Cbz-WV[Sta]A[Sta]-OMe), the IC50 is 6.75 nM in test [3] (setting [4]), 150 nM in test [3] (setting [5]), 75 nM in test [1] and 29 nM in test [2].
Regarding `CC(C)C[C@H](NC(=O)[C@H](C)NC(=O)C[C@H](O)[C@H](CC(C)C)NC(=O)[C@H](Cc1c[nH]cn1)NC(=O)[C@H](Cc1ccccc1)NC(=O)OC(C)(C)C)[C@@H](O)CC(=O)O` [SR 41492, Boc--Phe--His--Sta--Ala--Sta--OH] (Boc-FH[Sta]A[Sta]-OH), the values for the IC50 in test [3] (setting [5]), in test [1] and in test [2] were 45 nM, 700 nM and 550 nM, respectively.
On to `COC(=O)C[C@H](O)[C@H](CC(C)C)NC(=O)[C@H](C)NC(=O)C[C@H](O)[C@H](CC(C)C)NC(=O)[C@H](C)NC(=O)[C@H](Cc1ccccc1)NC(=O)CC(C)C` [SR 42258, iVa--Phe--Ala--Sta--Ala--Sta--OMe] (Isovaleryl-FA[Sta]A[Sta]-OMe), for which the half-maximal inhibitory concentration (IC50) was 9 nM in test [3] (setting [4]), 470 nM in test [3] (setting [5]) and 18 nM in test [2].
Turning to `COC(=O)C[C@H](O)[C@H](CC(C)C)NC(=O)[C@H](C)NC(=O)C[C@H](O)[C@H](CC(C)C)NC(=O)CNC(=O)[C@H](Cc1ccccc1)NC(=O)CC(C)C` [SR 42261, iVa--Phe--Gly--Sta--Ala--Sta--OMe] (Isovaleryl-FG[Sta]A[Sta]-OMe), the IC50 in test [3] (setting [4]) is 170 nM; in test [3] (setting [5]) it was 4700 nM; in test [2], 750 nM.
For `COC(=O)C[C@H](O)[C@H](CC(C)C)NC(=O)[C@H](C)NC(=O)C[C@H](O)[C@H](CC(C)C)NC(=O)[C@@H](NC(=O)[C@H](Cc1ccc(O)cc1)NC(=O)OCc1ccccc1)C(C)C` [SR 41476, Z--Tyr--Val--Sta--Ala--Sta--OMe] (Cbz-YV[Sta]A[Sta]-OMe), the IC50 in test [3] (setting [4]) came to 170 nM; in test [3] (setting [5]), 2200 nM; in test [2], 24 nM.
On the same counts, the results for `CC(C)C[C@H](NC(=O)[C@H](C)NC(=O)C[C@H](O)[C@H](CC(C)C)NC(=O)[C@@H](NC(=O)[C@@H](Cc1ccccc1)NC(=O)OC(C)(C)C)C(C)C)[C@@H](O)CC(=O)O` [SR 41491, Boc--(D)Phe--Val--Sta--Ala--Sta--OH] (Boc-[dF]V[Sta]A[Sta]-OH) are 260 nM, 4000 nM and 22 nM.

These data come from patent US4481192A, “Acid-protease inhibiting peptide derivatives” (SANOFI, priority 1982, dated 1984).
